Experimental data reported in US20250171432A1, “COMPOUNDS AND METHODS OF USE” (Tango Therapeutics, Inc., priority 2022, published 2025).

Tests used:
Format in all cases: cell-based
[1] = test system: SDMA (PRMT5 activity) in HAP1 MTAP-deleted cell line; test: SDMA in-cell western assay, HAP1 MTAP-deleted; conditions: for IC50 / IC90: Homo sapiens, SDMA in-cell western, HAP1 MTAP-deleted cells, 24 hours compound incubation; for Hap1 MTAP intact/deleted ratio: ratio of SDMA IC50 in HAP1 MTAP-intact to HAP1 MTAP-deleted cell line
[2] = test system: SDMA (PRMT5 activity) in HAP1 MTAP-intact cell line; test: SDMA in-cell western assay, HAP1 MTAP-intact; conditions: Homo sapiens, HAP1, 24 h, SDMA in-cell western, HAP1 MTAP-intact cells, 24 hours compound incubation
[3] = test system: HAP1 MTAP-deleted cell line; test: Viability assay (CellTiter-Glo), HAP1 MTAP-deleted; conditions: Homo sapiens, 168 h, HAP1 MTAP-deleted cells, 7 days
Outline: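 HAP1 MTAP-deleted and MTAP-intact cells seeded, then dosed next day (n=3, 0.2% DMSO) and grown 7 days. Viability by CellTiter-Glo luminescence, expressed as % of DMSO control per cell line.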

Structure (SMILES) | IC50 [1] | IC90 [1] | Hap1 MTAP intact/deleted ratio [1] | IC50 [2] | IC50 [3]
CCc1cc(NC(=O)C(=O)N2C[C@@H](C)CC[C@@H]2c2ccc3sc(CC4CCN(C)CC4)nc3c2)cnc1N [Compound 41, N-(6-amino-5-ethylpyridin-3-yl)-2-((2R,5S)-5-methyl-2-(2-((1-methylpiperidin-4-yl)methyl)benzo[d]thiazol-5-yl)piperidin-1-yl)-2-oxoacetamide] | < 5 nM | < 75 nM | B (“B” indicates an IC50 ratio greater than or equal to 15 fold but lower than 30 fold) | 5 to 50 nM | < 100 nM
COc1ncc(NC(=O)C(=O)N2C[C@@H](C)CC[C@@H]2c2ccc3sc([C@@H](C)CN4CCCC4)nc3c2)cc1C(N)=O [Compound 62, 2-methoxy-5-[[2-oxo-2-[(2R,5S)-5-methyl-2-[2-[(1S)-1-methyl-2-pyrrolidin-1-yl-ethyl]-1,3-benzothiazol-5-yl]-1-piperidyl]acetyl]amino]pyridine-3-carboxamide] | < 5 nM | < 75 nM | A (“A” indicates an IC50 ratio greater than or equal to 30 fold) | > 50 nM | < 100 nM
CCc1cc(NC(=O)C(=O)N2C[C@@H](C)CC[C@@H]2c2ccc3cn(C4CCN(C)C(C)(C)C4)nc3c2)cnc1N (single isomer, unassigned) [Compound 48] | < 5 nM | < 75 nM | C (“C” indicates an IC50 ratio of less than 15 fold) | 5 to 50 nM | < 100 nM
CCc1cc(NC(=O)C(=O)N2C[C@@H](C)CC[C@@H]2c2ccc(F)c(OCCN(C)C)c2)cnc1N [Compound 128, N-(6-amino-5-ethylpyridin-3-yl)-2-((2R,5S)-2-(3-(2-(dimethylamino)ethoxy)-4-fluorophenyl)-5-methylpiperidin-1-yl)-2-oxoacetamide] | 5 to 50 nM | > 125 nM | A (“A” indicates an IC50 ratio greater than or equal to 30 fold) | > 50 nM | < 100 nM
CCc1cc(NC(=O)C(=O)N2C[C@@H](C)CC[C@@H]2c2ccc3nn(CCN(C)C)cc3c2)cnc1N [Compound 72] | 5 to 50 nM | > 125 nM | A (“A” indicates an IC50 ratio greater than or equal to 30 fold) | > 50 nM | < 100 nM
COc1ncc(NC(=O)C(=O)N2C[C@@H](C)CC[C@@H]2c2ccc3sc([C@@H]4CCN(C)CC4(C)C)nc3c2)cc1C(N)=O (single isomer, unassigned) [Compound 3] | < 5 nM | < 75 nM | B (“B” indicates an IC50 ratio greater than or equal to 15 fold but lower than 30 fold) | > 50 nM | < 100 nM
CCc1cc(NC(=O)C(=O)N2C[C@@H](C)CC[C@@H]2c2cccc(OCC3CCCN3C)c2)cnc1N (relative stereo) [Compound 69, N-(6-amino-5-ethyl-3-pyridyl)-2-oxo-2-[(2R,5S)-5-methyl-2-[3-[[rel-(2R)-1-methylpyrrolidin-2-yl]methoxy]phenyl]-1-piperidyl]acetamide] | < 5 nM | < 75 nM | A (“A” indicates an IC50 ratio greater than or equal to 30 fold) | > 50 nM | < 100 nM
CCc1cc(NC(=O)C(=O)N2C[C@@H](C)CC[C@@H]2c2cccc(OCC3CCCN3C)c2)cnc1N (single isomer, unassigned) [Compound 121] | 5 to 50 nM | < 75 nM | B (“B” indicates an IC50 ratio greater than or equal to 15 fold but lower than 30 fold) | > 50 nM | < 100 nM
COc1ncc(NC(=O)C(=O)N2C[C@@H](C)CC[C@@H]2c2ccc3sc([C@@H]4CCN(C)C[C@H]4OC)nc3c2)cc1C(N)=O (single isomer, unassigned) [Compound 68] | < 5 nM | < 75 nM | A (“A” indicates an IC50 ratio greater than or equal to 30 fold) | > 50 nM | < 100 nM
COc1ncc(NC(=O)C(=O)N2C[C@@H](C)CC[C@@H]2c2ccc3sc(CC(C)N4CCCC4)nc3c2)cc1C(N)=O (mixture of isomers) [Compound 57, 2-methoxy-5-(2-((2R,5S)-5-methyl-2-(2-(2-(pyrrolidin-1-yl)propyl)benzo[d]thiazol-5-yl)piperidin-1-yl)-2-oxoacetamido)nicotinamide] | < 5 nM | < 75 nM | A (“A” indicates an IC50 ratio greater than or equal to 30 fold) | > 50 nM | < 100 nM
